Experimental data: US5451599A, “Complex salts of hematoporphyrin and of its derivatives, their synthesis, and therapeutic agent” (Wojskowa Akademia Techniczna im. Jaroslawa Dabrowskiego, priority 1991, dated 1995)

Columns and labels:
[1] = system: GR (GRMT/F6, mammary gland cancer cells of GR-strain mice); experiment: 48 h incubation with the salts: cell fluorescence, living cells, multiplication coefficient (Table 2); format: cell-based, Murine; conditions: 48 hs, 50 mcg/ml
Method: (§1) New compounds of formula 1 were tested on cell lines. Use was made of 9 different neoplastic cell lines which were incubated for 48 hs with various new salts of protoporphyrin and with a new salt of the conventionally applied HpD preparation/hematoporphyrin derivatives/obtained according to Lipson et al. All compounds were used in the form of aqueous solutions, at a concentration of 50 mcg/ml. Determination was made of:
(§2) 1/ Cell fluorescence /F/: after 48 hs incubation, the cells were washed away, the intensity of fluorescence was measured in a fluorescence microscope and was expressed on an arbitrary scale of 0-4 scores;
(§3) 2/ Percentage of living cells /P %/ after 48 hs incubation;
(§4) 3/ Cell multiplication coefficient /M/ in the presence of different preparations, expressed as: [formula]
GRMT/F6 mammary gland cancer cells of GR-strain mice

[2] = system: T-47D (breast cancer cells); experiment: 48 h incubation with the salts: cell fluorescence, living cells, multiplication coefficient (Table 3); format: cell-based, Human; conditions: 48 hs, 50 mcg/ml
Method: as §1, §2, §3, §4
T-47D breast cancer cells

[3] = system: HEp-2 (larynx cancer cells); experiment: as above; format: cell-based, Human; conditions: 48 hs, 50 mcg/ml
Method: as §1, §2, §3, §4
Hep-2 larynx cancer cells

[4] = system: Mm (Mm5MT/C1, mammary gland cancer cells of C3H-strain mice); experiment: as above; format: cell-based, Murine; conditions: for Cell fluorescence /F/ / Cell multiplication coefficient /M/ / Percentage of living cells /P %/: Mm, 48 hs, 50 mcg/ml
Method: as §1, §2, §3, §4
mammary gland cancer cells of C3H-strain mice

[5] = system: KB (oral cavity cancer cells); experiment: 48 h incubation with the salts: cell fluorescence, living cells, multiplication coefficient (Table 2); format: cell-based, Human; conditions: 48 hs, 50 mcg/ml
Method: as §1, §2, §3, §4
KB oral cavity cancer cells

[6] = system: PZ; experiment: 48 h incubation with the salts: cell fluorescence, living cells, multiplication coefficient (Table 1); format: cell-based; conditions: 48 hs, 50 mcg/ml
Method: as §1, §2, §3, §4

[7] = system: MA-104 (Rhesus monkey embryo kidney cancer cells); experiment: as above; format: cell-based; conditions: 48 hs, 50 mcg/ml
Method: as §1, §2, §3, §4

[8] = system: CL; experiment: as above; format: cell-based; conditions: 48 hs, 50 mcg/ml
Method: as §1, §2, §3, §4

[9] = system: Hela (cervix uteri cancer cells); experiment: as above; format: cell-based, Human; conditions: 48 hs, 50 mcg/ml
Method: as §1, §2, §3, §4

[10] = system: HBT-39/w (breast cancer cells); experiment: 48 h incubation with the salts: cell fluorescence, living cells, multiplication coefficient (Table 2); format: cell-based, Human; conditions: 48 hs, 50 mcg/ml
Method: as §1, §2, §3, §4

Structure (SMILES)	Cell fluorescence /F/ [1]	Cell multiplication coefficient /M/ [1]	Percentage of living cells /P %/ [1]	Cell fluorescence /F/ [2]	Cell multiplication coefficient /M/ [2]	Percentage of living cells /P %/ [2]	Cell fluorescence /F/ [3]	Cell multiplication coefficient /M/ [3]	Percentage of living cells /P %/ [3]	Cell fluorescence /F/ [4]	Cell multiplication coefficient /M/ [4]	Percentage of living cells /P %/ [4]	Cell fluorescence /F/ [5]	Cell multiplication coefficient /M/ [5]	Percentage of living cells /P %/ [5]	Cell fluorescence /F/ [6]	Cell multiplication coefficient /M/ [6]	Percentage of living cells /P %/ [6]	Cell fluorescence /F/ [7]	Cell multiplication coefficient /M/ [7]	further results
CC1=C(CCC(=O)O)c2cc3[nH]c(cc4nc(cc5[nH]c(cc1n2)c(C(C)NC(C)C(=O)O)c5C)C(C(C)NC(C)C(=O)O)=C4C)c(C)c3CCC(=O)O.N=C(N)NCCC[C@H](N)C(=O)O.N=C(N)NCCC[C@H](N)C(=O)O (stereo not drawn) [PP/Ala/2 /Arg/2, l-arginine di/N-alanyl/-protoporphyrinate]	+	0,50	50%	+++	0,82	85%	++	0,21	21%	+++	0,84	86%	+++	0	0%	++	0,15	15%	++	0,50	Percentage of living cells /P %/ [7]: 50%; Cell fluorescence /F/ [8]: -; Cell multiplication coefficient /M/ [8]: 0,30; Percentage of living cells /P %/ [8]: 30%; Cell fluorescence /F/ [9]: +; Cell multiplication coefficient /M/ [9]: 0,11; Percentage of living cells /P %/ [9]: 11%; Cell fluorescence /F/ [10]: ++; Cell multiplication coefficient /M/ [10]: 0,33; Percentage of living cells /P %/ [10]: 17%
CC1=C(CCC(=O)O)c2cc3[nH]c(cc4nc(cc5[nH]c(cc1n2)c(C(C)NC(CC(=O)O)C(=O)O)c5C)C(C(C)NC(CC(=O)O)C(=O)O)=C4C)c(C)c3CCC(=O)O.N=C(N)NCCC[C@H](N)C(=O)O.N=C(N)NCCC[C@H](N)C(=O)O (stereo not drawn) [PP/Asp/2 /Arg/2, l-arginine di/N-aspartyl/-protoporphyrinate]	++	0,73	25%	++++	0,92	65%	++++	0,40	47%	+++	0,92	70%	++	0,12	16%	+	0,15	14%	+++	0,52	Percentage of living cells /P %/ [7]: 17%; Cell fluorescence /F/ [8]: +; Cell multiplication coefficient /M/ [8]: 0,55; Percentage of living cells /P %/ [8]: 55%; Cell fluorescence /F/ [9]: +++; Cell multiplication coefficient /M/ [9]: 0,50; Percentage of living cells /P %/ [9]: 38%; Cell fluorescence /F/ [10]: +++; Cell multiplication coefficient /M/ [10]: 0,81; Percentage of living cells /P %/ [10]: 48%
CC1=C(CCC(=O)O)c2cc3[nH]c(cc4nc(cc5[nH]c(cc1n2)c(C(C)NC(CS)C(=O)O)c5C)C(C(C)NC(CS)C(=O)O)=C4C)c(C)c3CCC(=O)O.N=C(N)NCCC[C@H](N)C(=O)O.N=C(N)NCCC[C@H](N)C(=O)O (stereo not drawn) [PP/Cys/2 /Arg/2, l-arginine di/N-cysteyl/-protoporphyrinate]	+++	0,75	50%	+	0,84	26%	++++	0,32	60%	+++	0,73	40%	+	0,12	12%	+	0,40	40%	++	0,16	Percentage of living cells /P %/ [7]: 11%; Cell fluorescence /F/ [8]: -; Cell multiplication coefficient /M/ [8]: 0,30; Percentage of living cells /P %/ [8]: 30%; Cell fluorescence /F/ [9]: ++; Cell multiplication coefficient /M/ [9]: 0,43; Percentage of living cells /P %/ [9]: 55%; Cell fluorescence /F/ [10]: +; Cell multiplication coefficient /M/ [10]: 0,53; Percentage of living cells /P %/ [10]: 42%
CC1=C(CCC(=O)O)c2cc3[nH]c(cc4nc(cc5[nH]c(cc1n2)c(C(C)NC(Cc1ccccc1)C(=O)O)c5C)C(C(C)NC(Cc1ccccc1)C(=O)O)=C4C)c(C)c3CCC(=O)O.N=C(N)NCCC[C@H](N)C(=O)O.N=C(N)NCCC[C@H](N)C(=O)O (stereo not drawn) [PP/Fen/2 /Arg/2, l-arginine di/N-phenylalanyl/protoporphyrinate]	+++	0	0%	+	0,60	60%	++	0,08	3%	++++	0,37	12%	++	0,12	12%	+	0,08	8%	++	0,35	Percentage of living cells /P %/ [7]: 35%; Cell fluorescence /F/ [8]: ++; Cell multiplication coefficient /M/ [8]: 0; Percentage of living cells /P %/ [8]: 0%; Cell fluorescence /F/ [9]: +++; Cell multiplication coefficient /M/ [9]: 0,14; Percentage of living cells /P %/ [9]: 5%; Cell fluorescence /F/ [10]: ++++; Cell multiplication coefficient /M/ [10]: 0,11; Percentage of living cells /P %/ [10]: 11%
CC1=C(CCC(=O)O)c2cc3[nH]c(cc4nc(cc5[nH]c(cc1n2)c(C(C)NC(CCC(=O)O)C(=O)O)c5C)C(C(C)NC(CCC(=O)O)C(=O)O)=C4C)c(C)c3CCC(=O)O.N=C(N)NCCC[C@H](N)C(=O)O.N=C(N)NCCC[C@H](N)C(=O)O (stereo not drawn) [PP/Glu/2 /Arg/2, l-arginine di/N-glutamyl/-protoporphyrinate]	+	0,75	75%	+++	0,80	49%	++++	0,08	15%	+++	0,70	76%	++++	0,08	8%	+	0,15	15%	-	0,16	activity in studies of the Mm5MT/C1 cell line (in words) ([4]; mammary gland cancer of C3H mice): least effective against this type of neoplasm; Percentage of living cells /P %/ [7]: 15%; Cell fluorescence /F/ [8]: -; Cell multiplication coefficient /M/ [8]: 0,45; Percentage of living cells /P %/ [8]: 45%; Cell fluorescence /F/ [9]: ++; Cell multiplication coefficient /M/ [9]: 0,16; Percentage of living cells /P %/ [9]: 33%; Cell fluorescence /F/ [10]: +; Cell multiplication coefficient /M/ [10]: 0,73; Percentage of living cells /P %/ [10]: 66%
CSCCC(NC(C)C1=C(C)c2cc3[nH]c(cc4nc(cc5[nH]c(cc1n2)c(C)c5C(C)NC(CCSC)C(=O)O)C(C)=C4CCC(=O)O)c(CCC(=O)O)c3C)C(=O)O.N=C(N)NCCC[C@H](N)C(=O)O.N=C(N)NCCC[C@H](N)C(=O)O (stereo not drawn) [PP/Met/2 /Arg/2, l-arginine di/N-methionyl/-protoporphyrinate]	++++	0,22	25%	+++	0,10	10%	+++	0	0%	++++	0,08	8%	++	0,12	5%	+	0,08	8%	++	0,33	Percentage of living cells /P %/ [7]: 22%; Cell fluorescence /F/ [8]: +; Cell multiplication coefficient /M/ [8]: 0; Percentage of living cells /P %/ [8]: 0%; Cell fluorescence /F/ [9]: ++++; Cell multiplication coefficient /M/ [9]: 0,05; Percentage of living cells /P %/ [9]: 5%; Cell fluorescence /F/ [10]: ++++; Cell multiplication coefficient /M/ [10]: 0,08; Percentage of living cells /P %/ [10]: 8%
